# Source: patent publication US20260364088A1, “TASL MIMICKING MOLECULES AND APPLICATIONS THEREOF” (CEMM - FORSCHUNGSZENTRUM FÜR MOLEKULARE MEDIZIN GMBH, priority 2022, published 2026)
# Columns and labels:
# TASL-SLC15A4 complex = TASL-SLC15A4 complex (Homo sapiens, UniProt Q8N697); assay: PM-associated TASL levels in cells coexpressing ΔN-SLC15A4 and TASL-GFP; type: cell-based; conditions: 10 µM, 24 h
# Procedure: For live cell imaging cells were plated in PhenoPlate 96-well plates or Ibidi m-Slide 8 (Ibidi) wells at 16 k/well and incubated over-night. Then compounds were added, if indicated, and cells were imaged after 24 h of incubation. Cells were stained with LysoTracker Deep Red L12492 (ThermoFisher) and Hoechst 34580 (ThermoFisher). PhenoPlate images were acquired on an Opera Phenix Plus High-Content Screening System (PerkinElmer) and m-Slide images were acquired on a confocal laser scanning microscope (Zeiss LSM980, Carl Zeiss) equipped with an incubation chamber. Images were analyzed with Fiji-ImageJ.
# Encouraged by the fact that the chemical entity of the present invention was showing the desired behavior and specificity profile, it became important to better clarify the molecular basis of this uncommon mechanism of action, i.e interference with a highly specific protein interaction leading to degradation of a single complex component. The effect of dTASL1 on complex assembly was first monitored. […] While total levels of SLC15A4-GFP were unaltered, localization appears to reflect some lysosomal rearrangement. […] To further rule out the residual possibility of an indirect effect, possibly related to TASL maturation or transport, dTASL1 competition assays with GFP-SLC15A4 associated with short N-terminal portions of TASL protein were performed. […]
# [1] = tested on: TNF production in CD14^+ monocytes; assay: TNF ELISA, R848-stimulated purified CD14^+ monocytes; type: cell-based, human; conditions: purified CD14^+ cells, dTASL1 10 µM 24 h, R848 (5 μg/ml) 16 h, n=8
# From the text: HEK293T cells and THP1 cells were purchased from ATCC, THP1 DUAL/ISRE reporter cell lines from Invivogen. CAL-1 cells were provided by T. Maeda (Nagasaki University). Cell lines—except for CAL-1—were authenticated by short tandem repeat profiling and regularly tested for mycoplasma contamination. Human primary PBMCs were isolated from the blood of anonymous healthy donors as well as SLE patients included in our biobank approved by the ethics committee of the Medical University of Vienna (EK2071/2020 and EK1075/2021). CD14^+ monocytes were purified by magnetic-activated cell sorting (Miltenyi Biotec, #130-050-201) according to the manufacturers protocol. Purity of CD14^+ cells ranged between 80.8% and 94.2% as determined by flow cytometry analysis. […]
# Given that all evidence obtained seems to confirm the mechanistic precision of this chemical agent, any further consideration of assessing the therapeutic potential required evidence for activity in human primary cells relevant for SLE pathophysiology. The effect of dTASL1 in human peripheral blood mononuclear cells (PBMCs) was assessed. […] The impact of dTASL1 on TLR7/8 responses by directly monitoring IRF5 by confocal microscopy in B cells was assessed.
# TASL-GFP = TASL-GFP (Homo sapiens, UniProt Q8N697); assay: TASL-GFP levels in HEK293T cells co-expressing SLC15A4 (flow cytometry, microscopy); type: cell-based; conditions: HEK293T co-expressing SLC15A4, 10 µM, 24 h
# Procedure: (§1) Cells transfected with TASL-V5 plasmid were stained for V5-tag and detected with deep red Alexa Fluor 647 secondary antibody to allow for selection in the presence of an mCherry reporter. Cells were measured either immediately after staining or in the case of live cells immediately after harvesting and washing with PBS. Data were acquired on a BD FACSCalibur (BD Biosciences) and analyzed with FlowJo software (version 10).
# (§2) For live cell imaging cells were plated in PhenoPlate 96-well plates or Ibidi m-Slide 8 (Ibidi) wells at 16 k/well and incubated over-night. Then compounds were added, if indicated, and cells were imaged after 24 h of incubation. Cells were stained with LysoTracker Deep Red L12492 (ThermoFisher) and Hoechst 34580 (ThermoFisher). […] Images were analyzed with Fiji-ImageJ.
# (§3) Encouraged by the fact that the chemical entity of the present invention was showing the desired behavior and specificity profile, it became important to better clarify the molecular basis of this uncommon mechanism of action, i.e interference with a highly specific protein interaction leading to degradation of a single complex component. The effect of dTASL1 on complex assembly was first monitored. […]
# TASL-GFP (Homo sapiens) = assay: as above; type: cell-based; conditions: HEK293T co-expressing SLC15A4, 10 µM, 24 h
# Procedure: as §1, §2, §3
# NF-κB p65 = NF-κB p65 nuclear translocation in CD19^+ B cells of PBMCs (confocal microscopy); type: cell-based, human; conditions: primary B cells, dTASL1 10 µM 24 h, R848 (5 μg/ml) 3 h, n=7
# Procedure: PBMCs were treated for 24 h with DMSO or dTASL1 (10 µM) and thereafter stimulated with 5 μg/ml R848 (Invivogen) for three hours or left unstimulated. Cells were harvested and stained for 30 minutes with PE-conjugated anti-CD19 antibodies (BioLegend, #302254, 1:200 in PBS/2% FBS) on ice and fixed with 4% formaldehyde in PBS for 15 minutes at RT. Permeabilization and staining for NF-κB p65 and IRF5 and counterstaining was performed as for CAL-1 and cells were seeded at a concentration of 3×10^4 cells/well onto 384-well imaging plates. Images were acquired on a PerkinElmer Opera Phenix HCS spinning disc confocal microscope and analyzed as described above with the additional identification of B cells based on CD19 membrane staining intensity. This protocol also applies to the cells obtained from SLE patients.
# Given that all evidence obtained seems to confirm the mechanistic precision of this chemical agent, any further consideration of assessing the therapeutic potential required evidence for activity in human primary cells relevant for SLE pathophysiology. The effect of dTASL1 in human peripheral blood mononuclear cells (PBMCs) was assessed. […] It has been previously shown that the SLC15A4-TASL module was required for TNF production in primary human monocytes. […] The impact of dTASL1 on TLR7/8 responses by directly monitoring IRF5 by confocal microscopy in B cells was assessed.
# CAL-1 pDCs = assay: ELISA of R848-induced responses in CAL-1 pDCs; type: cell-based, human
# Procedure: CAL-1, THP1 or human primary cells were incubated with dTASL1 and other identified compounds (or the corresponding volume of DMSO vehicle) for 24 h or 48 h at the indicated concentration and subsequently stimulated with R848 (5 μg/ml) for the indicated time. Supernatant or cells were recovered for ELISA, SDS-PAGE or microscopy-based analysis.
# All enzyme-linked immunosorbent assay (ELISA) experiments were performed using diluted cell supernatant according to manufacturer's instructions. ELISA kits for human IL-6 (no. 88-7066-88), human CCL2 (no. 88-7399-88) and human TNF (no. 88-7346-77) were from Invitrogen. ELISA kit for human interferon beta […] was from PBL Assay Science (41410-1).
# Based on potency and kinetics, the compound C5 was selected for further characterization (FIG. 2E). C5 is an elongated molecule comprised of an aromatic 2-(4-ethoxyphenyl)-quinoline moiety followed by an amide bond and an aliphatic 2-methyl-1-propylpiperidine (FIG. 2F). To validate the scaffold and explore the chemical space at the aliphatic end of the compound, five analogues and an independently synthesized batch of C5 were obtained. […] Therefore the C5 compound was selected, which was named dTASL1 as its activity leads to TASL degradation, to assess effects on TLR7/8-induced signaling and responses.
# Chain of TASL-GFP (Homo sapiens) (Q8N697 whole entry): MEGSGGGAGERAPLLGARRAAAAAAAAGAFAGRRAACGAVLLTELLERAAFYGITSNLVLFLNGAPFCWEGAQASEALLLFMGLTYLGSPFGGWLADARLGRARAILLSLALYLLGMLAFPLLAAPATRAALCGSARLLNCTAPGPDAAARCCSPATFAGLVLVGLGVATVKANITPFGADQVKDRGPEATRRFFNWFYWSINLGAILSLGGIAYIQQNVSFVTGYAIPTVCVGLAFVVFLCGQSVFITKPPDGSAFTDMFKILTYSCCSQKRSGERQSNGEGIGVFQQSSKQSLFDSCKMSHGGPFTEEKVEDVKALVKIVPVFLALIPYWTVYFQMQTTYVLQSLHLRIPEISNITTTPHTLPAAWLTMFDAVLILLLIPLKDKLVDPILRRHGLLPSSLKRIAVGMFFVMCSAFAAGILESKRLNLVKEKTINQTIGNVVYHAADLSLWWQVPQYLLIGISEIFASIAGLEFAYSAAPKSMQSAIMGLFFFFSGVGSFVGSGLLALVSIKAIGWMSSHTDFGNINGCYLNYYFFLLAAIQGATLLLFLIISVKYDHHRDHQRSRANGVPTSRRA
# Chain of TASL-GFP (Q8N697 whole entry): as above
# Chain of TASL-SLC15A4 complex (Q8N697 whole entry, one chain of several): as the sequence (Q8N697 whole entry) above
smiles,measurement,setting,value
"CCOc1ccc(-c2cc(C(=O)NCCCN3CCCCC3C)c3ccccc3n2)cc1 (stereo not shown) [dTASL1, 2-(4-ethoxyphenyl)-N-(3-(2-methylpiperidin-1-yl)propyl) quinoline-4-carboxamide]",PM-associated TASL levels,TASL-SLC15A4 complex,severely reduced PM-associated TASL levels
same,TNF production,[1],a significant reduction in this proinflammatory cytokine
same,TASL-GFP levels and localization by microscopy,TASL-GFP,a reduction of TASL-GFP levels accompanied by relocalisation
same,TASL-GFP levels,TASL-GFP (Homo sapiens),reduced TASL-GFP levels
same,activation of NF-κB p65,NF-κB p65,without affecting the activation of NF-κB p65
same,R848-induced responses,"CAL-1 pDCs; CAL-1 pDCs, 24 h pre-treatment, R848 (5 μg/ml) 16-24 h",strongly suppressed R848-induced responses
same,downstream type I IFN production,CAL-1 pDCs; human monocytic and pDC cell lines,specifically impairs TLR7/8-induced IRF5 activation and downstream type I IFN production
